The results in this text go back to publication PMC8341910, “Structural and biophysical insights into the mode of covalent binding of rationally designed potent BMX inhibitors” (RSC Chemical Biology, 2020).

For experiment [1], the target named is T1, wild-type BMX in PC3 cells (Homo sapiens, UniProt P51813).
T1 construct: endogenous in cells; host or cells: PC3 prostate cancer cells (wild-type, untransfected)
The experiment in a line: BMX degradation assay in PC3 cells (Western blot). The experiment is classed as cell-based. To be noted: 10 μM; 24 h and 72 h; band intensity normalized to α-Tubulin. The procedure:
The cell proliferation depends on BMX kinase activity that was used to monitor the cellular activity of the compounds (IC50). […].  Fig. 5 (a) Intracellular target engagement in HEK293 cells transiently transfected with BMX expressing NanoLuc®-BMX fusion vector with Promega's NanoBRET™ TE Intracellular Kinase Assay. […] Band intensity was measured using ImageJ and normalized with α-Tubulin band intensity. […] Data are mean ± standard deviation obtained from at least three independent measurements (n = 3). See ESI ^† for additional data and analysis. […] | page 12: […]
degradation assay. Protein band intensity normalized with α-Tubulin band intensity and quantified using ImageJ. Data was obtained from at least three independent measurements […]
concentration against PC3 cells, plated on 6-well plates, a day after attachment. DMSO was used as a control vehicle. At 24 h and 72 h of incubation, cells were washed in 1X PBS and lysed in 100 µL RIPA Buffer (in house) supplemented with EDTA-free Protease Inhibitor Cocktail (Merk) and DNase I (Merk). The lysis procedure was performed by re-suspending cells continuously, followed by a incubation of 30 min on ice. BMX antibody (Abcam) and tubulin antibody (Cell signaling Technology) were used in the Western blot. Band intensity […]
In general terms: A western blot detects proteins with antibodies after separation by electrophoresis.

The next experiment concerns the target PIK3CA (Homo sapiens, UniProt P42336). The experiment in a line: KINOMEscan binding. Conditions: read-out: % Ctrl PIK3CA.
Another experiment concerns the target HCK (Homo sapiens, UniProt P08631). The experiment in a line: KINOMEscan binding. To be noted: read-out: % Ctrl HCK.
The target in another experiment is PIK3CG (Homo sapiens, UniProt P48736). The experiment in a line: KINOMEscan binding. Conditions: read-out: % Ctrl PIK3CG.
Another experiment concerns the target PIK3CD (Homo sapiens, UniProt O00329). The experiment in a line: KINOMEscan binding. To be noted: read-out: % Ctrl PIK3CD.
In another experiment the target is PAK1 (Homo sapiens, UniProt Q13153). The experiment in a line: KINOMEscan binding. Conditions: read-out: % Ctrl PAK1.
Sequence of PAK1 (Q13153 whole entry): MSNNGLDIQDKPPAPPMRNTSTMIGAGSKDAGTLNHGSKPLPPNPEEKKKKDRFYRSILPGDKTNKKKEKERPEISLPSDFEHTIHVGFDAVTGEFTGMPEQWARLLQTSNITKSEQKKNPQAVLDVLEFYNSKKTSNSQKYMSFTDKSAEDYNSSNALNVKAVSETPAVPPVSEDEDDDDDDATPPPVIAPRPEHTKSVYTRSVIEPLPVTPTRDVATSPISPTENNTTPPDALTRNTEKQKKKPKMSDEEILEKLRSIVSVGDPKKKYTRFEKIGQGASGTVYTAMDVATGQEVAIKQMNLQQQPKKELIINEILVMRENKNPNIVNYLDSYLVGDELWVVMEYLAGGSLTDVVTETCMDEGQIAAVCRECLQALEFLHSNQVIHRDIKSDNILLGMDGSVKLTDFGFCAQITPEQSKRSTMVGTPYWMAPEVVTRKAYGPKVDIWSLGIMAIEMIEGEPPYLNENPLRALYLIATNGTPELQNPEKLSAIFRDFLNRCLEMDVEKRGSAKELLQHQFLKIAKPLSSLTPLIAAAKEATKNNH

Sequence of HCK (P08631 whole entry): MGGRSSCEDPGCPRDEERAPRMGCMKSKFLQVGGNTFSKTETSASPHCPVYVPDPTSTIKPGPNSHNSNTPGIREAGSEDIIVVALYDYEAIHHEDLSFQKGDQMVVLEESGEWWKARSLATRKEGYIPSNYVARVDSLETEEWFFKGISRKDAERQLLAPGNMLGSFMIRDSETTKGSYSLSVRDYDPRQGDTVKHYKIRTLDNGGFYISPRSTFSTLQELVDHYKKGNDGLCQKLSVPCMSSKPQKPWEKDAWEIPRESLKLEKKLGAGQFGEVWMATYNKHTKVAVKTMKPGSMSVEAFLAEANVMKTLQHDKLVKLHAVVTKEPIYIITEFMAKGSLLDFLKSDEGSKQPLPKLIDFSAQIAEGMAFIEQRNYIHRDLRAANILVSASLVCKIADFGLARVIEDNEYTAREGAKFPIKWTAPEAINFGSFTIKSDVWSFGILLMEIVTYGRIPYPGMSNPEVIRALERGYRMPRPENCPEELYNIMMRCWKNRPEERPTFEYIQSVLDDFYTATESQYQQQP
Sequence of PIK3CG (P48736 whole entry): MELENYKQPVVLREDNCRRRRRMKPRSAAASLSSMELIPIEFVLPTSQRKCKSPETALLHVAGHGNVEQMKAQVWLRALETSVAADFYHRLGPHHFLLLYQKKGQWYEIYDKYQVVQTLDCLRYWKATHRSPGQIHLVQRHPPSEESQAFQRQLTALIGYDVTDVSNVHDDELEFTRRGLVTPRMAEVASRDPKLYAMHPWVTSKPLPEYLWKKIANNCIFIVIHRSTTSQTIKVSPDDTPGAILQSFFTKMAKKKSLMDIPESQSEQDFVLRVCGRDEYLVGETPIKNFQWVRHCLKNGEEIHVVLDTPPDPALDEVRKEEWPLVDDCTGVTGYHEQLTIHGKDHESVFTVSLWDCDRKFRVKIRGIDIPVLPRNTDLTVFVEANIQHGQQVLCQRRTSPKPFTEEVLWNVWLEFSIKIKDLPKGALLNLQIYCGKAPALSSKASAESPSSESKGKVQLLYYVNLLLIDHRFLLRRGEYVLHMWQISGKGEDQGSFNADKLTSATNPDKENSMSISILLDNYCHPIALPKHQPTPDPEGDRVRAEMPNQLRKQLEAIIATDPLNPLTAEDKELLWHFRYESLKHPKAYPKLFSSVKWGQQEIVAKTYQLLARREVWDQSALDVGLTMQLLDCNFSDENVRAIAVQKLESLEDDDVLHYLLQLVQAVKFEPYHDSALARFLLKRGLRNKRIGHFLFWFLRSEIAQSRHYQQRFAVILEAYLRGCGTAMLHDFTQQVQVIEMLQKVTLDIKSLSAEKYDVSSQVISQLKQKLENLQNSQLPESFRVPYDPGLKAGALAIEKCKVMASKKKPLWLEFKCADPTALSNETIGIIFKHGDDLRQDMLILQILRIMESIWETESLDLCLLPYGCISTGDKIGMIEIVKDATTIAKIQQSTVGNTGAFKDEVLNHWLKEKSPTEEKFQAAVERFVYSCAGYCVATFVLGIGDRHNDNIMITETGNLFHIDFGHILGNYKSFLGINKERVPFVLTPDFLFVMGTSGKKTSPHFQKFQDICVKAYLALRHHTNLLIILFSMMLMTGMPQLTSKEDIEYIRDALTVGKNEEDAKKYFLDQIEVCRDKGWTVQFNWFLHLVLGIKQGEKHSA
Sequence of PIK3CD (O00329 whole entry): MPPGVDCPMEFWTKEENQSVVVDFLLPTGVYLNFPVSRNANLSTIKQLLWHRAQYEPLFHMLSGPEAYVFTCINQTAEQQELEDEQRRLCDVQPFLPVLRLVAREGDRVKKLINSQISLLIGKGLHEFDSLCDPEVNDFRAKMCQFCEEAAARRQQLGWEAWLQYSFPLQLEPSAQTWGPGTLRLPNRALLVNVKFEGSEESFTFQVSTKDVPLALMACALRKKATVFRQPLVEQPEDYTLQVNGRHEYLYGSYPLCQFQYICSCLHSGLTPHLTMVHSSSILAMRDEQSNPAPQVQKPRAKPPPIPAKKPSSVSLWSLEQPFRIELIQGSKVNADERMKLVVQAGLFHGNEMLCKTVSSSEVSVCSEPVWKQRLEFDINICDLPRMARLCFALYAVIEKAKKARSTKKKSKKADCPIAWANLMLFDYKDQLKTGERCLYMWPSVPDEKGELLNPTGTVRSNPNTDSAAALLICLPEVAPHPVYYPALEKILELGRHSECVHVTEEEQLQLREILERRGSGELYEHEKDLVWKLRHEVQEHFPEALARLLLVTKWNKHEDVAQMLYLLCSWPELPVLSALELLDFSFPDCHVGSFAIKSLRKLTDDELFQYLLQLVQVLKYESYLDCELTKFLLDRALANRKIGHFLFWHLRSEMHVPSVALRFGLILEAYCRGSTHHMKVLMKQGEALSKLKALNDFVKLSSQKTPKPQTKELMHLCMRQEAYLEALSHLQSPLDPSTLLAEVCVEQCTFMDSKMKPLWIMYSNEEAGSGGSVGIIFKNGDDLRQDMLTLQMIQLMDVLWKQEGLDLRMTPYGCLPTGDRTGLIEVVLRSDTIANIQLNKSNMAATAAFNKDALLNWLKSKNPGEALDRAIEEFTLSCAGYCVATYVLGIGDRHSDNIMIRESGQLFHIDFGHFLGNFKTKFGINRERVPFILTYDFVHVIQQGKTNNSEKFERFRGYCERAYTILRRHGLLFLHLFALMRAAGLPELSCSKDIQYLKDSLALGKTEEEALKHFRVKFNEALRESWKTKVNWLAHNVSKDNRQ
Sequence of PIK3CA (P42336 whole entry): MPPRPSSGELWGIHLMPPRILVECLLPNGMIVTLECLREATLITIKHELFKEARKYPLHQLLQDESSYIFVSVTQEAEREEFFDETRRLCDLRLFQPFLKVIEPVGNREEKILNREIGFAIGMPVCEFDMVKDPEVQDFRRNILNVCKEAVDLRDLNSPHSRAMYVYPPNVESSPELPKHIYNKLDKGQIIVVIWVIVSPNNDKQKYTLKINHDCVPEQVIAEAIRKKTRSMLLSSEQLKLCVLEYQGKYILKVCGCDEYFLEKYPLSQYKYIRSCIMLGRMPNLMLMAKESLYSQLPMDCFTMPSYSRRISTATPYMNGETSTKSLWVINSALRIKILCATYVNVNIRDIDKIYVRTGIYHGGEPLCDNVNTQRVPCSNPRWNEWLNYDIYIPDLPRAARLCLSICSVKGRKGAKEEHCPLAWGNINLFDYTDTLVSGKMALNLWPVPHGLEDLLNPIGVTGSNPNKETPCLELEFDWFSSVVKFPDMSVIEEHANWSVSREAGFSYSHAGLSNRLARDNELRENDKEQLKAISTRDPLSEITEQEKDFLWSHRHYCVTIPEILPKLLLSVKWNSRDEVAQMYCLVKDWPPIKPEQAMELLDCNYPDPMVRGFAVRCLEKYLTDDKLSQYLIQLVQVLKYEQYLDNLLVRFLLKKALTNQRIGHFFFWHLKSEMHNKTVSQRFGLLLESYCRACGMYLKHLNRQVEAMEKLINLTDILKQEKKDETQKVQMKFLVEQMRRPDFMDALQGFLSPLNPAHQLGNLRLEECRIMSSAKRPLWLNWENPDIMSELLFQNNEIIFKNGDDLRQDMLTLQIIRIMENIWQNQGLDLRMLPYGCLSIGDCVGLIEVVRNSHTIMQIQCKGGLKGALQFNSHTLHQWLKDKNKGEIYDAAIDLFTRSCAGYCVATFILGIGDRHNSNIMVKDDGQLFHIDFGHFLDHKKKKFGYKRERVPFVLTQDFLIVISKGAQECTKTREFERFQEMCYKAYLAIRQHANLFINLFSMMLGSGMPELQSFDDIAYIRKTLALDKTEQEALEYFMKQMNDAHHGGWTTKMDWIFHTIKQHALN
T1 sequence (P51813 whole entry): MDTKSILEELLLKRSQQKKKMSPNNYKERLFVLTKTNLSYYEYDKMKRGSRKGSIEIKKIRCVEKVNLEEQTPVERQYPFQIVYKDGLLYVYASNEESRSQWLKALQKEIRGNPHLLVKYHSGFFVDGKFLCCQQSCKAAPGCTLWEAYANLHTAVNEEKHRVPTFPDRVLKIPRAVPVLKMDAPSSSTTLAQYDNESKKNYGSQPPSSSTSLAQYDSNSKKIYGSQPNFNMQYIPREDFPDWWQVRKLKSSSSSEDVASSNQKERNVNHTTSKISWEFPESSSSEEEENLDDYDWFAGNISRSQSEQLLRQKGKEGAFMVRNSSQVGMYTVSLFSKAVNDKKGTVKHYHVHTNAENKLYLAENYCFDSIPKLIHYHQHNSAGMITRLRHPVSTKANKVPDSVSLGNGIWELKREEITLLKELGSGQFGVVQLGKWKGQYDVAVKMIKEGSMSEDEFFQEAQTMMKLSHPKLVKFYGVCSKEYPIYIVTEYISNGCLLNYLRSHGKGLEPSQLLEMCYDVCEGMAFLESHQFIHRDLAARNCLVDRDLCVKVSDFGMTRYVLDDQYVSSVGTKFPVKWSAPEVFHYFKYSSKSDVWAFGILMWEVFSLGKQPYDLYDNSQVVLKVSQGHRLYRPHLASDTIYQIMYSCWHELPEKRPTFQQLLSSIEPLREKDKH
Description for HCK: Therefore, we included the whole TEC, EGFR and JAK family in our screening, and the Src family and Lkb1, which also have a cysteine within the same sequence alignment.
(§1) Kinome selectivity was performed with DiscoverX KINOMEscan™ technology.
Description for PAK1: (§2) Therefore, we included the whole TEC, EGFR and JAK family in our screening, and the Src family and Lkb1, which also have a cysteine within the same sequence alignment. We also included kinases involved in upstream (Src, FAK, PI3K, mTOR, PDK1) and downstream (Akt, PAK1, TAM) regulation of BMX signaling pathway and non-receptor tyrosine protein kinase Abl.
as §1
Description for PIK3CA: as §2, §1
Description for PIK3CD: as §2, §1
Description for PIK3CG: as §2, §1

On to `C=CC(=O)Nc1cc(C)cc(-n2c(=O)ccc3cnc4cc(-c5ccc(NS(C)(=O)=O)cc5)ccc4c32)c1` [JS25], for which the “degradation of BMX protein” value in experiment [1] was “induce degradation of wild-type BMX in PC3 cells”. In addition, the remaining binding at 1 µM at PIK3CA stood at 79%; on HCK, 95%; on PIK3CG, 64%; on PIK3CD, 100%; on PAK1, 100%.
